In US12043599B2, “Herbicidal compounds” (SYNGENTA PARTICIPATIONS AG, priority 2018, dated 2024):

How the values were obtained:
Assay type in all cases: in vivo
Conditions in all cases: 250 g/h, evaluated after 13 days
[1] = test system: Alopecurus myosuroides (ALOMY); experiment: Pre-emergence herbicidal glasshouse test, percentage damage
Outline: (§1)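 Glasshouse, 24/16 °C, 14 h photoperiod, 65% humidity. Sprayed at 250 g/h pre- (1 d) or post-emergence (8 d); evaluated 13 d after spraying, 5-point damage scale.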

Avena fatua (AVEFA) [2] = experiment: as above
Outline: as §1

[3] = test system: Echinochloa crus-galli (ECHCG); experiment: as above
Outline: as §1

Lolium perenne (LOLPE) [4] = experiment: as above
Outline: as §1

Setaria faberi (SETFA) [5] = experiment: as above
Outline: as §1

Setaria faberi (SETFA) [6] = experiment: Post-emergence herbicidal glasshouse test, percentage damage
Outline: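 Percentage damage was scored 13 days after treatment on a five-point scale (1=0-19% to 5=80-100%). Treatments were post-emergence sprays on 8-day-old wheat, barley and SETFA plants in a glasshouse (24/16 °C day/night, 14 h light, 65% humidity), using acetone/water 50:50 with 0.5% Tween 20 at the stated rates. Wheat additionally received cloquintocet-mexyl safener at 50 g/ha.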

[7] = test system: Alopecurus myosuroides (ALOMY); experiment: as above
Outline: as §1

Avena fatua (AVEFA) [8] = experiment: as above
Outline: as §1

[9] = test system: Echinochloa crus-galli (ECHCG); experiment: as above
Outline: as §1

Lolium perenne (LOLPE) [10] = experiment: as above
Outline: as §1

SMILES	ALOMY PRE percentage damage (five point scale) [1]	AVEFA PRE percentage damage (five point scale) (Avena fatua (AVEFA) [2])	ECHCG PRE percentage damage (five point scale) [3]	LOLPE PRE percentage damage (five point scale) (Lolium perenne (LOLPE) [4])	SETFA PRE percentage damage (five point scale) (Setaria faberi (SETFA) [5])	SETFA POST percentage damage (five point scale) (Setaria faberi (SETFA) [6])	ALOMY POST percentage damage (five point scale) [7]	AVEFA POST percentage damage (five point scale) (Avena fatua (AVEFA) [8])	ECHCG POST percentage damage (five point scale) [9]	LOLPE POST percentage damage (five point scale) (Lolium perenne (LOLPE) [10])
CC#Cc1cc(C)c(C2C(=O)CC3(CCN(C(=O)NC(=O)c4cc(F)ccn4)CC3)CC2=O)c(C)c1 [Compound A164]	4 (4=60-79%)	5 (5=80-100%)	5 (5=80-100%)	5 (5=80-100%)	5 (5=80-100%)	5 (5=80-100%)	5 (5=80-100%)	5 (5=80-100%)	5 (5=80-100%)	5 (5=80-100%)
CC#Cc1cc(C)c(C2C(=O)CC3(CCN(C(=O)N(C)C(C)=O)CC3)CC2=O)c(C)c1 [Compound A86]	5 (5=80-100%)	5 (5=80-100%)	5 (5=80-100%)	5 (5=80-100%)	5 (5=80-100%)	5 (5=80-100%)	5 (5=80-100%)	5 (5=80-100%)	5 (5=80-100%)	5 (5=80-100%)
CC#Cc1cc(C)c(C2C(=O)CC3(CCN(C(=O)Cc4csc(C(F)F)n4)CC3)CC2=O)c(C)c1 [Compound A194]	4 (4=60-79%)	5 (5=80-100%)	5 (5=80-100%)	5 (5=80-100%)	5 (5=80-100%)	5 (5=80-100%)	4 (4=60-79%)	5 (5=80-100%)	5 (5=80-100%)	5 (5=80-100%)
CC#Cc1cc(C)c(C2C(=O)CC3(CCN(C(=O)COC)CC3)CC2=O)c(OC)c1 [Compound A75]	5 (5=80-100%)	5 (5=80-100%)	5 (5=80-100%)	5 (5=80-100%)	5 (5=80-100%)	5 (5=80-100%)	5 (5=80-100%)	5 (5=80-100%)	5 (5=80-100%)	5 (5=80-100%)
CC#Cc1cc(C)c(C2C(=O)CC3(CCN(C(=O)NC(=O)c4ccccc4)CC3)CC2=O)c(C)c1 [Compound A166]	5 (5=80-100%)	4 (4=60-79%)	4 (4=60-79%)	5 (5=80-100%)	5 (5=80-100%)	5 (5=80-100%)	5 (5=80-100%)	5 (5=80-100%)	5 (5=80-100%)	5 (5=80-100%)
CC#Cc1cc(C)c(C2C(=O)CC3(CCN(C(=O)c4ccc(C(F)(F)F)cn4)CC3)CC2=O)c(C)c1 [Compound A89]	5 (5=80-100%)	5 (5=80-100%)	5 (5=80-100%)	5 (5=80-100%)	5 (5=80-100%)	5 (5=80-100%)	5 (5=80-100%)	5 (5=80-100%)	5 (5=80-100%)	5 (5=80-100%)
CC#Cc1cc(C)c(C2=C(OC(=O)c3ccccc3F)CC3(CCN(C(=O)c4ccccc4F)CC3)CC2=O)c(C)c1 [Compound P20]	5 (5=80-100%)	3 (3=40-59%)	5 (5=80-100%)	5 (5=80-100%)	5 (5=80-100%)	5 (5=80-100%)	5 (5=80-100%)	5 (5=80-100%)	5 (5=80-100%)	5 (5=80-100%)
CC#Cc1cc(C)c(C2C(=O)CC3(CCN(C(=O)NC(=O)c4ccc(OC)cn4)CC3)CC2=O)c(C)c1 [Compound A176]	3 (3=40-59%)	2 (2=20-39%)	5 (5=80-100%)	5 (5=80-100%)	5 (5=80-100%)	5 (5=80-100%)	5 (5=80-100%)	2 (2=20-39%)	5 (5=80-100%)	5 (5=80-100%)
CC#Cc1cc(C)c(C2=C(OC(=O)OC)CC3(CCN(C(=O)COC)CC3)CC2=O)c(C)c1 [Compound P19]	5 (5=80-100%)	5 (5=80-100%)	5 (5=80-100%)	5 (5=80-100%)	5 (5=80-100%)	5 (5=80-100%)	5 (5=80-100%)	5 (5=80-100%)	5 (5=80-100%)	5 (5=80-100%)
CC#Cc1cc(C)c(C2C(=O)CC3(CCN(C(=O)NC(C)(C)CC)CC3)CC2=O)c(C)c1 [Compound A169]	5 (5=80-100%)	5 (5=80-100%)	5 (5=80-100%)	5 (5=80-100%)	5 (5=80-100%)	5 (5=80-100%)	5 (5=80-100%)	5 (5=80-100%)	5 (5=80-100%)	5 (5=80-100%)
CC#Cc1cc(C)c(C2C(=O)CC3(CCN(C(=O)NC(=O)c4ccc(C#N)cn4)CC3)CC2=O)c(C)c1 [Compound A160]	2 (2=20-39%)	4 (4=60-79%)	4 (4=60-79%)	3 (3=40-59%)	5 (5=80-100%)	5 (5=80-100%)	4 (4=60-79%)	5 (5=80-100%)	4 (4=60-79%)	5 (5=80-100%)
CC#Cc1cc(C)c(C2C(=O)CC3(CCN(C(=O)NC(=O)c4ncccc4F)CC3)CC2=O)c(C)c1 [Compound A163]	0	5 (5=80-100%)	5 (5=80-100%)	4 (4=60-79%)	5 (5=80-100%)	5 (5=80-100%)	5 (5=80-100%)	5 (5=80-100%)	5 (5=80-100%)	5 (5=80-100%)
CC#Cc1cc(C)c(C2C(=O)CC3(CCN(C(=O)Nc4ccccn4)CC3)CC2=O)c(C)c1 [Compound A41]	4 (4=60-79%)	4 (4=60-79%)	5 (5=80-100%)	5 (5=80-100%)	5 (5=80-100%)	5 (5=80-100%)	4 (4=60-79%)	5 (5=80-100%)	5 (5=80-100%)	5 (5=80-100%)
CC#Cc1cc(C)c(C2C(=O)CC3(CCN(C(=O)Cc4cnccn4)CC3)CC2=O)c(C)c1 [Compound A104]	4 (4=60-79%)	5 (5=80-100%)	5 (5=80-100%)	5 (5=80-100%)	5 (5=80-100%)	5 (5=80-100%)	5 (5=80-100%)	5 (5=80-100%)	5 (5=80-100%)	5 (5=80-100%)
